Measurements taken from PubChem BioAssay (NCI).
Several values for one entry are separate records, joined by “and”; a condition that tells them apart may be missing. Equal values may be shown once.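 Exposure lasted 48 hours, with cells grown in 96-well plates and compounds tested at five concentrations. GI50 = concentration required for 50% inhibition of growth. TGI is the concentration that stops growth completely.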

Experiments:
Assay in all cases: NCI-60 cell line screen, 48 h
SF-539 CNS = system: SF-539 CNS
PC-3 prostate = system: PC-3 prostate
SK-MEL-28 melanoma = system: SK-MEL-28 melanoma
BT-549 breast = system: BT-549 breast
UO-31 renal = system: UO-31 renal
LOX IMVI melanoma = system: LOX IMVI melanoma
MOLT-4 leukemia = system: MOLT-4 leukemia
M14 melanoma = system: M14 melanoma
NCI/ADR-RES ovarian = system: NCI/ADR-RES ovarian
RPMI-8226 leukemia = system: RPMI-8226 leukemia
HS 578T breast = system: HS 578T breast
SK-OV-3 ovarian = system: SK-OV-3 ovarian
NCI-H23 lung = system: NCI-H23 lung
A498 renal = system: A498 renal
SK-MEL-5 melanoma = system: SK-MEL-5 melanoma
HT29 colon = system: HT29 colon
MALME-3M melanoma = system: MALME-3M melanoma
IGROV1 ovarian = system: IGROV1 ovarian
SN12C renal = system: SN12C renal
UACC-62 melanoma = system: UACC-62 melanoma
DU-145 prostate = system: DU-145 prostate
CAKI-1 renal = system: CAKI-1 renal
OVCAR-3 ovarian = system: OVCAR-3 ovarian
SR leukemia = system: SR leukemia
COLO 205 colon = system: COLO 205 colon
KM12 colon = system: KM12 colon
UACC-257 melanoma = system: UACC-257 melanoma
U251 CNS = system: U251 CNS
SF-295 CNS = system: SF-295 CNS
SW-620 colon = system: SW-620 colon
786-0 renal = system: 786-0 renal
RXF 393 renal = system: RXF 393 renal
SF-268 CNS = system: SF-268 CNS
K-562 leukemia = system: K-562 leukemia
MDA-MB-435 = system: MDA-MB-435
HOP-92 NSCLC = system: HOP-92 NSCLC
SNB-19 CNS = system: SNB-19 CNS
SNB-75 CNS = system: SNB-75 CNS
OVCAR-8 ovarian = system: OVCAR-8 ovarian
HCT-116 colon = system: HCT-116 colon
NCI-H226 lung = system: NCI-H226 lung
NCI-H522 lung = system: NCI-H522 lung
NCI-H460 lung = system: NCI-H460 lung
MCF7 breast = system: MCF7 breast
MDA-MB-231 breast = system: MDA-MB-231 breast
A549 NSCLC = system: A549 NSCLC
ACHN renal = system: ACHN renal
TK-10 renal = system: TK-10 renal
CCRF-CEM leukemia = system: CCRF-CEM leukemia
HCT-15 colon = system: HCT-15 colon
OVCAR-4 ovarian = system: OVCAR-4 ovarian
HL-60(TB) leukemia = system: HL-60(TB) leukemia
HOP-62 NSCLC = system: HOP-62 NSCLC
EKVX NSCLC = system: EKVX NSCLC
SK-MEL-2 melanoma = system: SK-MEL-2 melanoma
HCC-2998 colon = system: HCC-2998 colon
T-47D breast = system: T-47D breast
OVCAR-5 ovarian = system: OVCAR-5 ovarian

## COc1ccc(C2=N[C@@H](c3ccc(Cl)cc3)[C@@H](c3ccc(Cl)cc3)N2C(=O)N2CCNC(=O)C2)c(OC(C)C)c1
SF-539 CNS
  GI50: 16.5 µM and 17.2 µM and 17.8 µM
  TGI: 32 µM and 32.9 µM and 35.1 µM
PC-3 prostate
  GI50: 11.2 µM and 11.1 µM and 12.3 µM
  TGI: 26.7 µM and 24.9 µM and 28 µM
SK-MEL-28 melanoma
  GI50: 15.8 µM and 15.3 µM and 16.5 µM
  TGI: 30.8 µM and 29.6 µM and 32.2 µM
BT-549 breast
  GI50: 12.6 µM and 14.9 µM and 15.4 µM
  TGI: 25.7 µM and 29.2 µM and 29.9 µM
UO-31 renal
  GI50: 5.92 µM and 3.77 µM and 2.63 µM
  TGI: 20.7 µM and 17.5 µM and 15.9 µM
LOX IMVI melanoma
  GI50: 13.8 µM and 4.07 µM and 2.81 µM
  TGI: 27.4 µM and 19.3 µM and 18.3 µM
MOLT-4 leukemia
  GI50: 7.54 µM and 3.5 µM and 2.74 µM
  TGI: 28.4 µM and > 36.2 µM and 17.2 µM
M14 melanoma
  GI50: 14.1 µM and 14.9 µM and 16.3 µM
  TGI: 28.4 µM and 32 µM and 33.2 µM
NCI/ADR-RES ovarian
  GI50: 16.9 µM and 16.7 µM and 16.2 µM
  TGI: 35 µM and 37.8 µM and 37.1 µM
RPMI-8226 leukemia
  GI50: 14.6 µM and 16.6 µM and 16.4 µM
  TGI: > 63.7 µM and 62.7 µM and 56.8 µM
HS 578T breast
  GI50: 15.6 µM and 17.3 µM and 17 µM
  TGI: 44 µM and 56 µM and 49.3 µM
SK-OV-3 ovarian
  GI50: 16.8 µM and 15.9 µM and 15.4 µM
  TGI: 30.8 µM and 30.9 µM and 30.4 µM
NCI-H23 lung
  GI50: 16 µM and 15.8 µM and 16.4 µM
  TGI: 32.1 µM and 33.2 µM and 34.8 µM
A498 renal
  GI50: 12.6 µM and 6.1 µM and 9.23 µM
  TGI: 25.6 µM and 21.9 µM and 24.1 µM
SK-MEL-5 melanoma
  GI50: 14.1 µM and 5.35 µM and 6.56 µM
  TGI: 27.2 µM and 17.7 µM and 19.6 µM
HT29 colon
  GI50: 14.9 µM and 14.4 µM and 14.2 µM
  TGI: 31.4 µM and 28.2 µM and 29.1 µM
MALME-3M melanoma
  GI50: 11.2 µM and 2.56 µM and 1.15 µM
  TGI: 25.6 µM and 16.4 µM and 17.1 µM
IGROV1 ovarian
  GI50: 13.1 µM and 6.5 µM and 5.08 µM
  TGI: 29.4 µM and 26.2 µM and 26.5 µM
SN12C renal
  GI50: 15.6 µM and 14.9 µM and 14.1 µM
  TGI: 34 µM and 29.9 µM and 28.7 µM
UACC-62 melanoma
  GI50: 11.3 µM and 2.76 µM and 1.38 µM
  TGI: 25.3 µM and 19.2 µM and 16.6 µM
DU-145 prostate
  GI50: 15.2 µM and 15.8 µM and 16.6 µM
  TGI: 28.7 µM and 29.3 µM and 30.3 µM
CAKI-1 renal
  GI50: 11.7 µM and 1.63 µM and 2.35 µM
  TGI: 24.7 µM and 12.9 µM and 14.5 µM
OVCAR-3 ovarian
  GI50: 14 µM and 13.1 µM and 13.7 µM
  TGI: 27.2 µM and 26 µM and 26.8 µM
SR leukemia
  GI50: 11.7 µM and 2.07 µM and 1.19 µM
  TGI: 36.5 µM and 23.9 µM and 17 µM
COLO 205 colon
  GI50: 15 µM and 16.6 µM and 15.8 µM
  TGI: 29.4 µM and 34.6 µM and 32.2 µM
KM12 colon
  GI50: 15.9 µM
  TGI: 32 µM and 30 µM and 30.6 µM
UACC-257 melanoma
  GI50: 13.2 µM and 4.26 µM and 3.98 µM
  TGI: 26.5 µM and 19.3 µM and 18.3 µM
U251 CNS
  GI50: 13.7 µM and 14.8 µM and 16.2 µM
  TGI: 27.2 µM and 29.5 µM and 31.6 µM
SF-295 CNS
  GI50: 12.6 µM and 12.9 µM and 14.9 µM
  TGI: 27.3 µM and 26.8 µM and 30.4 µM
SW-620 colon
  GI50: 17.1 µM and 18.2 µM and 16.7 µM
  TGI: 33.6 µM and 37.4 µM and 34 µM
786-0 renal
  GI50: 14.9 µM and 16.6 µM and 17.3 µM
  TGI: 29 µM and 32.6 µM and 34 µM
RXF 393 renal
  GI50: 12.3 µM and 12.7 µM and 13.9 µM
  TGI: 25.4 µM and 25.9 µM and 27.8 µM
SF-268 CNS
  GI50: 13.9 µM and 13.1 µM and 14 µM
  TGI: 28 µM and 26.5 µM and 27.9 µM
K-562 leukemia
  GI50: 16.5 µM and 17.1 µM
  TGI: 61.6 µM and 53.1 µM and 74.1 µM
MDA-MB-435
  GI50: 14.2 µM and 13.6 µM and 16.1 µM
  TGI: 27.9 µM and 27.5 µM and 33.3 µM
HOP-92 NSCLC
  GI50: 14.9 µM and 10.7 µM
  TGI: 31.9 µM and 23.9 µM and 24.8 µM
SNB-19 CNS
  GI50: 12.5 µM and 15.5 µM and 14.6 µM
  TGI: 26.1 µM and 30.1 µM and 28.2 µM
SNB-75 CNS
  GI50: 13.4 µM and 11.8 µM and 11.9 µM
  TGI: 26.5 µM and 25.1 µM and 26.2 µM
OVCAR-8 ovarian
  GI50: 15.2 µM and 15.1 µM and 14.8 µM
  TGI: 31.1 µM and 30.9 µM and 30.1 µM
HCT-116 colon
  GI50: 12.4 µM and 3.82 µM and 3.53 µM
  TGI: 25.4 µM and 18.4 µM and 18.7 µM
NCI-H226 lung
  GI50: 13.7 µM and 1.57 µM and 1.56 µM
  TGI: 30.2 µM and 6.83 µM and 5.86 µM
NCI-H522 lung
  GI50: 14.6 µM and 13.6 µM and 16.3 µM
  TGI: 28.5 µM and 27.3 µM and 31.1 µM
NCI-H460 lung
  GI50: 14.8 µM and 3.04 µM and 2.17 µM
  TGI: 29.9 µM and 16.3 µM and 14.8 µM
MCF7 breast
  GI50: 13 µM and 2.43 µM and 2.27 µM
  TGI: 28.2 µM and 12.9 µM and 13 µM
MDA-MB-231 breast
  GI50: 17.2 µM and 13 µM and 14.8 µM
  TGI: 38.4 µM and 27.1 µM and 29.6 µM
A549 NSCLC
  GI50: 13.3 µM and 3.9 µM and 3.65 µM
  TGI: 27.4 µM and 18.4 µM and 17.4 µM
ACHN renal
  GI50: 14.6 µM and 3.61 µM and 3.8 µM
  TGI: 29.4 µM and 15.1 µM and 16.1 µM
TK-10 renal
  GI50: 16.1 µM and 14.6 µM and 14.8 µM
  TGI: 29.9 µM and 27.7 µM and 28 µM
CCRF-CEM leukemia
  GI50: 14.7 µM and 16.8 µM and 18.4 µM
  TGI: 35.4 µM and 42.7 µM and 50 µM
HCT-15 colon
  GI50: 14.3 µM and 14.5 µM and 14.9 µM
  TGI: 32.3 µM and 28.7 µM and 30.2 µM
OVCAR-4 ovarian
  GI50: 12.1 µM and 12.5 µM and 13.7 µM
  TGI: 24.9 µM and 26 µM and 31.5 µM
HL-60(TB) leukemia
  GI50: 15.1 µM and 18.1 µM and 18.5 µM
  TGI: 35.8 µM and 42.3 µM and 51 µM
HOP-62 NSCLC
  GI50: 16.5 µM and 15 µM and 16.1 µM
  TGI: 31.1 µM and 30.5 µM and 33.3 µM
EKVX NSCLC
  GI50: 10.3 µM and 12.1 µM and 12.9 µM
  TGI: 24.1 µM and 25.2 µM and 27.3 µM
SK-MEL-2 melanoma
  GI50: 16.3 µM and 14.6 µM and 15.9 µM
  TGI: 30.9 µM and 29 µM and 30.6 µM
HCC-2998 colon
  GI50: 14 µM and 15.7 µM and 12.8 µM
  TGI: 27.6 µM and 29.8 µM and 26 µM
T-47D breast
  GI50: 14.6 µM and 10.5 µM and 15.2 µM
  TGI: 30.4 µM and 27.4 µM and 40.6 µM
OVCAR-5 ovarian
  GI50: 17.1 µM and 16.3 µM and 17.3 µM
  TGI: 34 µM and 32.2 µM and 34.1 µM
